Reference: patent publication US10206907B2, “Compounds useful for the treatment of degenerative and inflammatory diseases” (GALAPAGOS NV, priority 2008, dated 2019)
pEC50, pIC50: −log10 of the molar value. Like-named read-outs stand apart in the source and are kept apart here.

Legend:
[1] = Microsomal stability, human liver microsomes; type: in vitro ADME; conditions: percentage of compound remaining after 60 minutes, 3 μM compound
Outline: (§1)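 Percent parent remaining after 60 min was determined by LCMS against a time-zero sample quenched before microsome addition. Incubations ran at 37°C with liver microsomes and a G6PDH-based NADPH-regenerating cofactor mix. Quench was MeOH or ACN (1:1).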

MMP13 in SW1353 cells = experiment: OSM/IL-1β signaling assay (MMP13 levels in SW1353 cells); type: cell-based; conditions: Homo sapiens; SW1353 cells, OSM and IL-1β triggered, MMP13 levels 48 hours after triggering; read-out: MMP13 EC50;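 also: secreted MMP13 captured by antibody, activated with APMA and its activity read by fluorescence, inhibition scaled between vehicle-treated triggered wells (0%) and untriggered wells (100%)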
[2] = biological target: Recombinant human JAK1 catalytic domain (Homo sapiens (Human), UniProt P23458); experiment: JAK1 inhibition assay; type: biochemical
Chain of Recombinant human JAK1 catalytic domain (P23458 850-1154): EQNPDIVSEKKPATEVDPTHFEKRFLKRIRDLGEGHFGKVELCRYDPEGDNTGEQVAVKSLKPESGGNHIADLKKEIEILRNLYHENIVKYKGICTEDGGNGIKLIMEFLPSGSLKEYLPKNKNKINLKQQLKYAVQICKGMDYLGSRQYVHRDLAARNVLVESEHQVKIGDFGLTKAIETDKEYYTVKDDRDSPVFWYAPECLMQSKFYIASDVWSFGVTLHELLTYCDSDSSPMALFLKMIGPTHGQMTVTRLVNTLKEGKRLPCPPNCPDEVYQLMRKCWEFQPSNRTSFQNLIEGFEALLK
Outline: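 IC50 values come from dose-response series, with each point expressed as percent inhibition of cpm. Vehicle sets full activity and 10 μM staurosporine sets background. Incorporated radioactivity counted by scintillation after washing with 75 mM phosphoric acid.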

[3] = Microsomal stability, rat liver microsomes; type: in vitro ADME; conditions: percentage of compound remaining after 60 minutes, 3 μM compound
Outline: as §1

[4] = biological target: Recombinant human JAK2 catalytic domain (Homo sapiens (Human), UniProt O60674); experiment: JAK2 inhibition assay; type: biochemical; conditions: semi-quantitative score
Chain of Recombinant human JAK2 catalytic domain (O60674 808-1132): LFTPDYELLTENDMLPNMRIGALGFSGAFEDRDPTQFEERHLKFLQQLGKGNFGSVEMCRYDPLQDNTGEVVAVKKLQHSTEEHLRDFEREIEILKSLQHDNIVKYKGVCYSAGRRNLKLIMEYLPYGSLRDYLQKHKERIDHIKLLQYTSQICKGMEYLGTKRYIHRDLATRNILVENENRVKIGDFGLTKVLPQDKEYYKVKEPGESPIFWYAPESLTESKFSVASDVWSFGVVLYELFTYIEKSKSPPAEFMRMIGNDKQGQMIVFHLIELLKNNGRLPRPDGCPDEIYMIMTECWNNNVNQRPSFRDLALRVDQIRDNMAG
Outline: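 Activity was taken as vehicle cpm minus cpm with 10 μM staurosporine, and inhibition was expressed on that scale. Incubation was 90 min at 30 °C, followed by acid quench, phosphoric acid washes and Microscint counting. Compounds were tested as dose series to obtain IC50.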

Row | SMILES | Microsomal Stability Human (%) [1] | pEC50 (MMP13 in SW1353 cells) | pIC50 ([2]; semi-quantitative score) | Microsomal Stability Rat (%) [3] | pIC50 [4] | pIC50 [2]
1 | CC1CCCN(C(=O)c2ccc(-c3cccc4nc(NC(=O)C5CC5)nn34)cc2)C1 (centres unmarked) [Compound 145, N-(5-(4-(3-methylpiperidine-1-carbonyl)phenyl)-[1,2,4]triazolo[1,5-a]pyridin-2-yl)cyclopropanecarboxamide] | *** (*** 51-75) | < 6.00 | > 7.00 | * (* 0-25) |  | 
2 | CC1CN(C(=O)c2ccc(-c3cccc4nc(NC(=O)C5CC5)nn34)cc2)CC(C)O1 (centres unmarked) [Compound 215, Cyclopropanecarboxylic acid {5-[4-(2,6-dimethyl-morpholine-4-carbonyl)-phenyl]-[1,2,4]triazolo[1,5-a]pyridin-2-yl}-amide] | **** (**** 76-100) | < 6.00 | > 7.00 | **** (**** 76-100) | 6.30 to 7.00 | 
3 | CC1(C)CN(C(=O)c2ccc(-c3cccc4nc(NC(=O)C5CC5)nn34)cc2)C1 [Compound 330, Cyclopropanecarboxylic acid (5-[4-(3,3-dimethyl-azetidine-1-carbonyl)-phenyl]-[1,2,4]triazolo[1,5-a]pyridin-2-yl}-amide] | **** (**** 76-100) | 6.00 to 6.30 | > 7.00 | **** (**** 76-100) | 6.30 to 7.00 | 
4 | O=C(Nc1nc2cccc(-c3ccc(CN4CCOCC4)cc3)n2n1)C1CC1 [Compound 18, N-(5-(4-(morpholinomethyl)phenyl)-[1,2,4]triazolo[1,5-a]pyridin-2-yl)cyclopropanecarboxamide] | **** (**** 76-100) | < 6.00 |  | ** (** 26-50) | < 6.00 | 
5 | N#Cc1ccc(COc2ccc(-c3cccc4nc(NC(=O)C5CC5)nn34)cc2)cn1 [Compound 176, N-(5-(4-((6-cyanopyridin-3-yl)methoxy)phenyl)-[1,2,4]triazolo[1,5-a]pyridin-2-yl)cyclopropanecarboxamide] | **** (**** 76-100) | 6.30 to 9.00 |  | **** (**** 76-100) | > 7.00 | > 7.00
